Series [1] relates to MV4-11. In words: Antiproliferative activity against human MV4-11 cells incubated for 48 hrs by CCK-8 assay. The series is classed as functional, cell-based. As to conditions: MV4-11, 48 h. A general note: Tetrazolium dyes change colour on reduction, which living cells bring about.
Series [2] deals with MOLM-13. In words: Antiproliferative activity against human MOLM-13 cells incubated for 48 hrs by CCK-8 assay. The series is classed as functional, cell-based. The following applies: MOLM-13, 48 h.
The target of series [3] is Receptor-type tyrosine-protein kinase FLT3 (Homo sapiens) (UniProt P36888). Description: Inhibition of FLT3 in human MOLM-13 cells assessed as reduction in ERK phosphorylation at 15 nM by Western blot analysis. The series is classed as cell-based. The following applies: time 0-12 hrs, TDE = time-dependent effect.
Sequence of Receptor-type tyrosine-protein kinase FLT3 (Homo sapiens) (P36888 whole entry): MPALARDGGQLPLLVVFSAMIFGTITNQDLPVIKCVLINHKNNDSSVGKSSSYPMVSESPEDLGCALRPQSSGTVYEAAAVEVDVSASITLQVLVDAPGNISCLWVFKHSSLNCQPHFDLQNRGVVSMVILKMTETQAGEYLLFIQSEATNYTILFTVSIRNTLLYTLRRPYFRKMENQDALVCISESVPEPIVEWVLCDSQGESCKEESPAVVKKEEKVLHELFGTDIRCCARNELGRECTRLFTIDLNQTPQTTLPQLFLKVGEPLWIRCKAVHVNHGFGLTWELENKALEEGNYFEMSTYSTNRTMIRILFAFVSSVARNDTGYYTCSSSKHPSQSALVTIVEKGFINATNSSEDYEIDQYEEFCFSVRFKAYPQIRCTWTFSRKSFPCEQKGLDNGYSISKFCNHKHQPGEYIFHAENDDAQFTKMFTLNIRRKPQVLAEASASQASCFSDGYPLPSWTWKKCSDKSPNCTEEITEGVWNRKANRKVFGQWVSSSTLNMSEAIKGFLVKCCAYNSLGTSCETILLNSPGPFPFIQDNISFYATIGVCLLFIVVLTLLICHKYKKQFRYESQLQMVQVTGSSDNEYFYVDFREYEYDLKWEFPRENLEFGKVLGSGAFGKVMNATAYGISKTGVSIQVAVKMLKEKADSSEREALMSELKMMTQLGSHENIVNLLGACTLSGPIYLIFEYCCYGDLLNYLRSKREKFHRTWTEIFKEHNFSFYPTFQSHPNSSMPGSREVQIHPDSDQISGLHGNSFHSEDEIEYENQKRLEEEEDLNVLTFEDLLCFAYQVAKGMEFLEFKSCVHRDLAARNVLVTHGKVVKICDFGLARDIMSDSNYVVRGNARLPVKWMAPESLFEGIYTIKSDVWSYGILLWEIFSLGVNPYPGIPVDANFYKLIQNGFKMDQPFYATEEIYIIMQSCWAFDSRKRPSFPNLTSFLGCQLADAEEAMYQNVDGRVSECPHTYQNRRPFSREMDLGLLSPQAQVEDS
A short description of series [4]: Toxicity in NOD/SCID mouse xenografted with human MV4-11 cells assessed as effect on body weight at 3 mg/kg/day, iv administered for 12 hrs. In kind it is organism-based. As to conditions: in vivo.
Series [5] has as its system Receptor-type tyrosine-protein kinase FLT3 (Homo sapiens), P36888 [UNDEFINED MUTATION]. Description: Induction of FLT3-ITD degradation in human MV4-11 cells after 24 hrs by Western blot analysis. The series is classed as cell-based.
The test system is the same in series [6]. Description: Induction of FLT3-ITD degradation in human MV4-11 cells assessed as accumulation of ubiquitinated FLT3-ITD at 15 nM preincubated for 4 hrs followed by MG132 addition for 2 hrs by immunoprecipitation assay. The series is classed as cell-based. The following applies: time 6.0 hrs.
Series [7] shares this test system. In words: Induction of FLT3-ITD degradation in human MV4-11 cells at 20 nM pretreated with dov for 2 hrs followed compound addition for 6 hrs by Western blot analysis. The series is classed as cell-based. On the technique in general: A western blot detects proteins with antibodies after separation by electrophoresis.
The target of series [8] is Mast/stem cell growth factor receptor Kit (Homo sapiens) (UniProt P10721). In words: Inhibition of KIT in human MV4-11 cells assessed as reduction in PI3K phosphorylation at 5 to 25 nM after 24 hrs by Western blot analysis. The series is classed as cell-based. The following applies: dose 5-25 nM.
Sequence of Mast/stem cell growth factor receptor Kit (Homo sapiens) (P10721 whole entry): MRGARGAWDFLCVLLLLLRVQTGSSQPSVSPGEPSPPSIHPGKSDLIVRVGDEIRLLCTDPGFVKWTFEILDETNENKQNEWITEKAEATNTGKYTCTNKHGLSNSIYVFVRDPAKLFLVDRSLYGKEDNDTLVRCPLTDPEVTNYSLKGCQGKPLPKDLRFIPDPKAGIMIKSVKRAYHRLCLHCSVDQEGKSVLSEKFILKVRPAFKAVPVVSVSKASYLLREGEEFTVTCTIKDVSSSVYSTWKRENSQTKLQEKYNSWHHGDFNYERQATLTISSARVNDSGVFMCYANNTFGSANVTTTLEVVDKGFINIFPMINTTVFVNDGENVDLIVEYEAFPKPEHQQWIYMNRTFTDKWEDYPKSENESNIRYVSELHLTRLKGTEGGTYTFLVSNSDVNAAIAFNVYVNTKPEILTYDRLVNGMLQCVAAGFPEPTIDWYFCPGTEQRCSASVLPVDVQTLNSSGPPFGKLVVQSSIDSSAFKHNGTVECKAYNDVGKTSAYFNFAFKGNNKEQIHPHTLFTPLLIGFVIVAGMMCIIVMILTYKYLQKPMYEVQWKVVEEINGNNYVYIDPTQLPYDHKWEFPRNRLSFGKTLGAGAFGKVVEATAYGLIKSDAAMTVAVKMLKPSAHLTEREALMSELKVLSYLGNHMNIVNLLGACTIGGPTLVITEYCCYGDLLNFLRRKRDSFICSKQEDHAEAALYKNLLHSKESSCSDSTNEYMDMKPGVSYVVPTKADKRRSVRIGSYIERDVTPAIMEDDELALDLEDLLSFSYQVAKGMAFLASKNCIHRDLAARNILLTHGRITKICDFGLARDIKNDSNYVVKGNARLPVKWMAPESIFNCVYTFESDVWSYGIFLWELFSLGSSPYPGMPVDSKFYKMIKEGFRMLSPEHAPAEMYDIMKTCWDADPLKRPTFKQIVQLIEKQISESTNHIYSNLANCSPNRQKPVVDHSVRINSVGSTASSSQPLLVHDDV
The test system of series [9] is MOLM-13. Description: Induction of apoptosis in human MOLM-13 cells assessed as downregulation of Mcl-1 level at 15 nM measured upto 12 hrs by Western blot analysis. As to conditions: time hrs <=12. The series is classed as functional, cell-based.
The subject of series [10] is MOLM-13. In words: Induction of apoptosis in human MOLM-13 cells assessed as downregulation of Bcl-2 level at 15 nM measured upto 12 hrs by Western blot analysis. The series is classed as functional, cell-based. As to conditions: time hrs <=12.
The test system of series [11] is MV4-11. Description: Induction of apoptosis in human MV4-11 cells assessed as downregulation of Bcl-2 level at 15 nM measured upto 12 hrs by Western blot analysis. In kind it is functional, cell-based. The following applies: time hrs <=12.
The target of series [12] is Mast/stem cell growth factor receptor Kit (Homo sapiens) (UniProt P10721). In words: Inhibition of KIT in human MOLM-13 cells assessed as reduction in PI3K phosphorylation at 5 to 25 nM after 24 hrs by Western blot analysis. The series is classed as cell-based. As to conditions: dose 5-25 nM.
Series [13] relates to Receptor-type tyrosine-protein kinase FLT3 (Homo sapiens), P36888 [UNDEFINED MUTATION]. Description: Induction of FLT3-ITD degradation in human MOLM-13 cells after 24 hrs by Western blot analysis. In kind it is cell-based.
Sequence of Receptor-type tyrosine-protein kinase FLT3 (Homo sapiens), P36888 [UNDEFINED MUTATION] (P36888 whole entry, looked up, change not shown): as the sequence (P36888 whole entry) above
Series [14] concerns MOLM-13. In words: Induction of apoptosis in human MOLM-13 cells after 48 hrs by Annexin-V/PI staining based flow cytometry. In kind it is functional, cell-based. The following applies: dose 1.25-10 nM. On the technique in general: In flow cytometry, cells or beads pass a laser one at a time.
The subject of series [15] is MV4-11. Description: Induction of apoptosis in human MV4-11 cells assessed as downregulation of Mcl-1 level at 15 nM measured upto 12 hrs by Western blot analysis. In kind it is functional, cell-based. As to conditions: time hrs <=12.
In series [16] the test system is MOLM-13. Description: Induction of apoptosis in human MOLM-13 cells assessed as upregulation of cleaved caspase-3 level at 15 nM by Western blot analysis. The series is classed as functional, cell-based. The following applies: time 0-12 hrs, TDE = time-dependent effect.
Series [17] addresses Receptor-type tyrosine-protein kinase FLT3 (Homo sapiens) (UniProt P36888). In words: Inhibition of FLT3 in human MOLM-13 cells assessed as reduction in FLT3 phosphorylation at 15 nM by Western blot analysis. The series is classed as cell-based. As to conditions: time 0-12 hrs, TDE = time-dependent effect.
For series [18], the system named is MV4-11. Description: Antitumor activity against human MV4-11 cells xenografted in NOD/SCID mouse assessed as reduction in CD45-positive cells in bone marrow at 3 mg/kg/day, iv administered for 12 days by flow cytometry analysis (reference value: 32.23 %). The series is classed as functional. On the set-up: scale not given: the % may be the effect or the level left. The following applies: time 12 day.

Series [19] addresses Receptor-type tyrosine-protein kinase FLT3 (Homo sapiens) (UniProt P36888). Description: Inhibition of FLT3 in human MV4-11 cells assessed as reduction in ERK phosphorylation at 15 nM by Western blot analysis. In kind it is cell-based. As to conditions: time 0-12 hrs, TDE = time-dependent effect.
In series [20] the target is Mast/stem cell growth factor receptor Kit (Homo sapiens) (UniProt P10721). In words: Inhibition of KIT in human MOLM-13 cells assessed as reduction in STAT3 phosphorylation at 5 to 25 nM after 24 hrs by Western blot analysis. In kind it is cell-based. The following applies: dose 5-25 nM.
The target of series [21] is Platelet-derived growth factor receptor beta (Homo sapiens) (UniProt P09619). Description: Induction of PDGFR degradation in human MV4-11 cells at 0 to 25 nM after 24 hrs by Western blot analysis. The series is classed as cell-based. The following applies: dose 0-25 nM.
Sequence of Platelet-derived growth factor receptor beta (Homo sapiens) (P09619 whole entry): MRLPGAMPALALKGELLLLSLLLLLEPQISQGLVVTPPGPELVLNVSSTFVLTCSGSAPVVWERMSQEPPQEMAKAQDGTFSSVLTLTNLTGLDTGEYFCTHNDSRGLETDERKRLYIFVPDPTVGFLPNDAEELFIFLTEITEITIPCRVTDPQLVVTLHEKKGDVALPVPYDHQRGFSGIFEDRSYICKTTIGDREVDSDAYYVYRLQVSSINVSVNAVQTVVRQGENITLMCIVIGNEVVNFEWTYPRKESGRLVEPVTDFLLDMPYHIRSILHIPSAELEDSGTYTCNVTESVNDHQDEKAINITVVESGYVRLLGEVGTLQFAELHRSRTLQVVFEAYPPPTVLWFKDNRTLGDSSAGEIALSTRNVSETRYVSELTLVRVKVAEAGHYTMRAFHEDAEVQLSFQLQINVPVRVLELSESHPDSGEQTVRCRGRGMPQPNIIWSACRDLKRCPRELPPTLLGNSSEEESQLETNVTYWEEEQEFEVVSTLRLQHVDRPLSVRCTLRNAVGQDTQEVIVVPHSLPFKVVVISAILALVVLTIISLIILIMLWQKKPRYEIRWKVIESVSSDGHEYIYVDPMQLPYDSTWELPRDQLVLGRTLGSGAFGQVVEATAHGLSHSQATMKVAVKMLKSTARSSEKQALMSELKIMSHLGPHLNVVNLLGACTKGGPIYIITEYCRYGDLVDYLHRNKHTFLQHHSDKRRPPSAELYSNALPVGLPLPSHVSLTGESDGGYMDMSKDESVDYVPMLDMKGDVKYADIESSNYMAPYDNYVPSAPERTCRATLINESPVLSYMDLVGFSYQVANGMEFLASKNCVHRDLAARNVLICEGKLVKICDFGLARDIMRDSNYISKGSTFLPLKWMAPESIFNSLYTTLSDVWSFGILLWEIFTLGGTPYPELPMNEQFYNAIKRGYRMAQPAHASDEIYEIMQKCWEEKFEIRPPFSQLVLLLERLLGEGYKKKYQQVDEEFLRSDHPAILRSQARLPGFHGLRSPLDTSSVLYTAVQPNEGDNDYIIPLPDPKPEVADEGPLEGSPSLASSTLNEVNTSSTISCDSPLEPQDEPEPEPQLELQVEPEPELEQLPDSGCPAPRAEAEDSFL
Series [22] concerns Receptor-type tyrosine-protein kinase FLT3 (Homo sapiens), P36888 [UNDEFINED MUTATION]. Description: Induction of FLT3-ITD degradation in human MV4-11 cells at 20 nM pretreated with pomalidomide for 2 hrs followed compound addition for 6 hrs by Western blot analysis. The series is classed as cell-based.
Series [23] addresses Mast/stem cell growth factor receptor Kit (Homo sapiens) (UniProt P10721). In words: Inhibition of KIT in human MV4-11 cells assessed as reduction in STAT3 phosphorylation at 5 to 25 nM after 24 hrs by Western blot analysis. The series is classed as cell-based. As to conditions: dose 5-25 nM.
The target of series [24] is Receptor-type tyrosine-protein kinase FLT3 (Homo sapiens) (UniProt P36888). Description: Inhibition of FLT3 in human MOLM-13 cells assessed as reduction in AKT phosphorylation at 15 nM by Western blot analysis. As to conditions: time 0-12 hrs, TDE = time-dependent effect. In kind it is cell-based.
The target in series [25] is Mast/stem cell growth factor receptor Kit (Homo sapiens) (UniProt P10721). In words: Induction of KIT degradation in human MOLM-13 cells at 0 to 25 nM after 24 hrs by Western blot analysis. The following applies: dose 0-25 nM. In kind it is cell-based.
Series [26] has the same target. Description: Induction of KIT degradation in human MV4-11 cells at 0 to 25 nM after 24 hrs by Western blot analysis. As to conditions: dose 0-25 nM. In kind it is cell-based.
Series [27] deals with MOLM-13. In words: Reduction in intracellular ROS level in human MOLM-13 cells measured after 12 hrs by DCFH-DA probe based flow cytometry. The series is classed as functional, cell-based. The following applies: dose 25-200 nM.
The target in series [28] is Platelet-derived growth factor receptor beta (Homo sapiens) (UniProt P09619). In words: Induction of PDGFR degradation in human MOLM-13 cells at 0 to 25 nM after 24 hrs by Western blot analysis. The following applies: dose 0-25 nM. The series is classed as cell-based.
Series [29] addresses Receptor-type tyrosine-protein kinase FLT3 (Homo sapiens) (UniProt P36888). Description: Inhibition of FLT3 in human MV4-11 cells assessed as reduction in FLT3 phosphorylation at 15 nM by Western blot analysis. The series is classed as cell-based. The following applies: time 0-12 hrs, TDE = time-dependent effect.
The test system of series [30] is MV4-11. In words: Induction of apoptosis in human MV4-11 cells after 48 hrs by Annexin-V/PI staining based flow cytometry. In kind it is functional, cell-based. As to conditions: dose 1.25-10 nM.
Series [31] deals with Receptor-type tyrosine-protein kinase FLT3 (Homo sapiens) (UniProt P36888). Description: Inhibition of FLT3 in human MV4-11 cells assessed as reduction in AKT phosphorylation at 15 nM by Western blot analysis. In kind it is cell-based. The following applies: time 0-12 hrs, TDE = time-dependent effect.
For series [32], the system named is MV4-11. In words: Induction of apoptosis in human MV4-11 cells assessed as upregulation of cleaved caspase-3 level at 15 nM by Western blot analysis. The series is classed as functional, cell-based. As to conditions: time 0-12 hrs, TDE = time-dependent effect.
Series [33] concerns Receptor-type tyrosine-protein kinase FLT3 (Homo sapiens), P36888 [UNDEFINED MUTATION]. In words: Induction of FLT3-ITD degradation in human MV4-11 cells at 20 nM pretreated with MG132 for 2 hrs followed compound addition for 6 hrs by Western blot analysis. In kind it is cell-based.
The target in series [34] is Receptor-type tyrosine-protein kinase FLT3 (Homo sapiens) (UniProt P36888). Description: Inhibition of FLT3 in human MV4-11 cells assessed as reduction in STAT5 phosphorylation at 15 nM by Western blot analysis. In kind it is cell-based. As to conditions: time 0-12 hrs, TDE = time-dependent effect.
Series [35] has the same target. In words: Inhibition of FLT3 in human MOLM-13 cells assessed as reduction in STAT5 phosphorylation at 15 nM by Western blot analysis. The series is classed as cell-based. As to conditions: time 0-12 hrs, TDE = time-dependent effect.
Series [36] has as its system MV4-11. In words: Reduction in intracellular ROS level in human MV4-11 cells measured after 12 hrs by DCFH-DA probe based flow cytometry. In kind it is functional, cell-based. As to conditions: dose 25-200 nM.

Calls of active or inactive are those of the source. The rule behind the calls is not given here.

In general, IC50 refers to the concentration needed to halve the response being measured. On to `Nc1c(-c2nc3cc(N4CCN(CCCCCCC(=O)Nc5cccc6c5CN(C5CCC(=O)NC5=O)C6=O)CC4)ccc3[nH]2)c(=O)[nH]c2cccc(F)c12` (configuration not stated), for which the IC50 in series [1] and in series [2] was over 1000 nM throughout.
For the compound `Nc1c(-c2nc3cc(N4CCN(C(=O)CCCCNc5cccc6c5C(=O)N(C5CCC(=O)NC5=O)C6=O)CC4)ccc3[nH]2)c(=O)[nH]c2cccc(F)c12` (configuration not stated), the inhibition entry in series [3], in series [17], in series [19], in [24], in [29] and in series [31] was “Tde” in each case. Besides, the inhibition result in [34] and in series [35] was “Tde” in each case. For the same compound, the Activity result in [4] is “Non-Toxic”; in series [5], “Dose-Dependent Effect”; in series [13], “Dose-Dependent Effect”; in series [14] it was “Dose-Dependent Effect”; in series [16], “Tde”; in series [18], 5.25%. The Activity entry in [27] was “Dose-Dependent Effect”; in series [30], “Dose-Dependent Effect”; in [32], “Tde”; in series [36] it was “Dose-Dependent Effect”. Besides, the outcome in series [6], in series [9], in series [10], in series [11], in series [15] and in series [21] was Active. In addition, the outcome in [25], in series [26] and in [28] was Active. In addition, the outcome in series [7], in series [22] and in series [33] was inactive. Moreover, the inhibition result in series [8], in series [12], in series [20] and in [23] was “Active” in each case. For the same compound, the half-inhibitory concentration (IC50) in series [1] was 18.7 nM; in series [2], 10.1 nM.
Regarding `Nc1c(-c2nc3cc(N4CCN(C(=O)CCCCCCNc5cccc6c5C(=O)N(C5CCC(=O)NC5=O)C6=O)CC4)ccc3[nH]2)c(=O)[nH]c2cccc(F)c12` (configuration not stated), the IC50 in [1] amounted to 416 nM; in series [2], 130 nM.
Regarding `CN1C(=O)CCC(N2C(=O)c3cccc(NCCCCCC(=O)N4CCN(c5ccc6[nH]c(-c7c(N)c8c(F)cccc8[nH]c7=O)nc6c5)CC4)c3C2=O)C1=O` (configuration not stated), the Activity entry in series [5] and in [13] was “Dose-Dependent Effect” in each case. Moreover, the values for the half-inhibitory concentration (IC50) in series [1] and in series [2] were 466 nM and 141 nM, respectively.
As for `Nc1c(-c2nc3cc(N4CCN(C(=O)CCCC#Cc5cccc6c5C(=O)N(C5CCC(=O)NC5=O)C6=O)CC4)ccc3[nH]2)c(=O)[nH]c2cccc(F)c12` (configuration not stated), the results for the IC50 in series [1] and in [2] were 424 nM and 93.7 nM, respectively.
In the case of `Nc1c(-c2nc3cc(N4CCN(CCCCCCC(=O)Nc5cccc6c5C(=O)N(C5CCC(=O)NC5=O)C6=O)CC4)ccc3[nH]2)c(=O)[nH]c2cccc(F)c12` (configuration not stated), the concentration for half-maximal inhibition (IC50) in series [1] is 418 nM; in series [2], over 1000 nM.
On the same counts, the results for `Nc1c(-c2nc3cc(N4CCN(CCCCCC(=O)Nc5cccc6c5C(=O)N(C5CCC(=O)NC5=O)C6=O)CC4)ccc3[nH]2)c(=O)[nH]c2cccc(F)c12` (configuration not stated) are 557 nM and over 1000 nM.
On the same counts, the results for `Nc1c(-c2nc3cc(N4CCN(CCCCCC(=O)Nc5cccc6c5CN(C5CCC(=O)NC5=O)C6=O)CC4)ccc3[nH]2)c(=O)[nH]c2cccc(F)c12` (configuration not stated) are over 1000 nM and over 1000 nM.

Source of the values: ChEMBL document CHEMBL4840352 (J Med Chem, 2021).
